Patent US20210395745A1, “RNAI AGENTS FOR HEPATITIS B VIRUS INFECTION” (Arrowhead Pharmaceuticals, Inc., priority 2019, published 2021)

How the values were obtained:
Hepatitis B Virus (HBV) [1] = experiment: Serum HBsAg levels (ELISA) in pHBV model mice; format: in vivo, NOD-SCID mice; conditions: for Average HBsAg levels normalized to pre-treatment and PBS control: 4.0 mg/kg sc day 1, Day 8
From the text: Six to eight-week-old female NOD.CB17-Prkdscid/NcrCrl (NOD-SCID) mice were transiently transfected in vivo with MC-HBV1.3 by hydrodynamic tail vein injection (Yang P L et al. “Hydrodynamic injection of viral DNA: a mouse model of acute hepatitis B virus infection,” PNAS USA 2002 Vol. 99: p. 13825-13830), administered 30 to 45 days prior to administration of an HBV RNAi agent or control. MC-HBV1.3 is a plasmid-derived minicircle that contains the same terminally redundant human hepatitis B virus sequence HBV1.3 as in plasmid pHBV1.3 and in the HBV1.3.32 transgenic mice (GenBank accession #V01460) (Guidotti L G et al., “High-level hepatitis B virus replication in transgenic mice,” J Virol 1995 Vol. 69, p 6158-6169.). 5 or 10 μg MC-HBV1.3 in Ringer's Solution in a total volume of 10% of the animal's body weight was injected into mice via tail vein to create pHBV model of chronic HBV infection. The solution was injected through a 27-gauge needle in 5-7 seconds as previously described (Zhang G et al., “High levels of foreign gene expression in hepatocytes after tail vein injection of naked plasmid DNA.” Human Gene Therapy 1999 Vol. 10, p 1735-1737.). At pre-dose (either day 1 pre-dose, day −1, or day −2), Hepatitis B surface antigen (HBsAg) HBsAg expression levels in serum were measured by ELISA and the mice were grouped according to average HBsAg expression levels.
HBV expression levels were normalized to pre-administration expression levels and to control mice injected with phosphate buffered saline (“PBS”).
Mice were anesthetized with 2-3% isoflurane and blood samples were collected from the submandibular area into serum separation tubes (Sarstedt AG & Co., Nümbrecht, Germany). Blood was allowed to coagulate at ambient temperature for 20 min. The tubes were centrifuged at 8,000×g for 3 min to separate the serum and stored at 4° C.
Serum was collected and diluted 10 to 8000-fold in PBS containing 5% nonfat dry milk. […] HBsAg levels were determined with a GS HBsAg EIA 3.0 kit (Bio-Rad Laboratories, Inc., Redmond, Wash.) as described by the manufacturer. […]

Hepatitis B Virus (HBV) [2] = experiment: Serum HBsAg levels in X Region Knockout model mice; format: in vivo; conditions: Example 14, single SC, 2 mg/kg AD04872 alone or with 0.7 to 2 mg/kg AD05070, days 8-29
Method: Serum was collected and diluted 10 to 8000-fold in PBS containing 5% nonfat dry milk. Secondary HBsAg standards diluted in the nonfat milk solution were prepared from serum of ICR mice (Harlan Sprague Dawley) that had been transfected with 10 μg HBsAg-expressing plasmid pRc/CMV-HBs (Aldevron, Fargo, N. Dak.). HBsAg levels were determined with a GS HBsAg EIA 3.0 kit (Bio-Rad Laboratories, Inc., Redmond, Wash.) as described by the manufacturer. Recombinant HBsAg protein, ayw subtype, also diluted in nonfat milk in PBS, was used as a primary standard (Aldevron).
HBsAg expression for each animal was normalized to the control group of mice injected with PBS in order to account for the non-treatment related decline in expression of MC-HBV1.3. First, the HBsAg level for each animal at a time point was divided by the pre-treatment level of expression in that animal in order to determine the ratio of expression “normalized to pre-treatment”. Expression at a specific time point was then normalized to the control group by dividing the “normalized to pre-treatment” ratio for an individual animal by the average “normalized to pre-treatment” ratio of all mice in the normal PBS control group.

Hepatitis B Virus (HBV) [3] = experiment: Serum HBV DNA levels in X Region Knockout model mice; conditions: Example 14, single SC, 2 mg/kg AD04872 with 0.7 to 2 mg/kg AD05070, days 8-22

Substance: AD05070: HBV RNAi agent duplex: antisense AM06606-AS, sense AM06605-SS (antisense UACCAAUUUAUGCCUACAGCG; sense CGCUGUAGGCAUAAAUUGGUA; chemically modified, pattern not given here)
- Average HBsAg levels normalized to pre-treatment and PBS control (Hepatitis B Virus (HBV) [1]; Ex 8 Group 6A): 0.058 ± 0.035
- Average HBsAg levels normalized to pre-treatment and PBS control (Hepatitis B Virus (HBV) [1]; Ex 8 Group 6B): 0.117 ± 0.058
- HBsAg compared to PBS control (Hepatitis B Virus (HBV) [1]; Example 15, pHBV mice, single SC injection, doses per Table 38, days 8-50): provided significant knockdown of HBsAg compared to PBS control across each of the time points measured
- knockdown of HBsAg compared to PBS control (Hepatitis B Virus (HBV) [2]): did not diminish the activity of the 2 mg/kg HBV RNAi agent AD04872
- serum HBV DNA (Hepatitis B Virus (HBV) [3]): did not diminish the activity of the 2 mg/kg HBV RNAi agent AD04872
